What was measured:
[1] = test system: barnyardgrass (Echinochloa crus-galli L.); test: Test Example 1: foliar treatment, growth inhibition rate, barnyardgrass; format: in vivo; conditions: 31 g/ha active ingredient, visually observed 17th to 23rd day after application
Summary of the method: (§1)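 Plants grown in upland soil in pots were sprayed on the foliage at set leaf stages (corn 2.0–3.5, greenfoxtail 1.0–3.0, rice 1.0–2.5, wheat 1.7–3.4 leaves) with wettable powder or emulsifiable concentrate formulations diluted in water at 500 L/ha plus 0.1 vol % spreader. Growth inhibition was scored visually 17–23 days later.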

[2] = test system: crabgrass (Digitaria sanguinalis L.); test: Test Example 1: foliar treatment, growth inhibition rate, crabgrass; format: in vivo; conditions: 31 g/ha active ingredient, visually observed 17th to 23rd day after application
Summary of the method: (§2)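 Visual scoring of growth inhibition, 0% (untreated) to 100% (complete kill), on days 17–23 following post-emergence spray of formulated compound in water (500 L/ha, 0.1 vol % spreader); plants treated at set leaf stages, e.g. corn 2.0–3.5, wheat 1.7–3.4.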

[3] = test system: greenfoxtail (Setaria viridis L.); test: Test Example 1: foliar treatment, growth inhibition rate, greenfoxtail; format: in vivo; conditions: 31 g/ha active ingredient, visually observed 17th to 23rd day after application
Summary of the method: as §2

[4] = test system: redroot pigweed (Amaranthus retroflexus L.); test: Test Example 1: foliar treatment, growth inhibition rate, redroot pigweed; format: in vivo; conditions: 31 g/ha active ingredient, visually observed 17th to 23rd day after application
Summary of the method: as §2

[5] = test system: prickly sida (Sida spinosa L.); test: Test Example 1: foliar treatment, growth inhibition rate, prickly sida; format: in vivo; conditions: 31 g/ha active ingredient, visually observed 17th to 23rd day after application
Summary of the method: as §2

[6] = test system: velvetleaf (Abutilon theophrasti MEDIC.); test: Test Example 1: foliar treatment, growth inhibition rate, velvetleaf; format: in vivo; conditions: 31 g/ha active ingredient, visually observed 17th to 23rd day after application
Summary of the method: as §1

[7] = test system: rice (Oryza sativa L.); test: Test Example 1: foliar treatment, growth inhibition rate, rice; format: in vivo; conditions: 31 g/ha active ingredient, visually observed 17th to 23rd day after application
Summary of the method: as §2

[8] = test system: wheat (Triticum spp.); test: Test Example 1: foliar treatment, growth inhibition rate, wheat; format: in vivo; conditions: 31 g/ha active ingredient, visually observed 17th to 23rd day after application
Summary of the method: as §2

[9] = test system: corn (Zea mays L.); test: Test Example 1: foliar treatment, growth inhibition rate, corn; format: in vivo; conditions: 31 g/ha active ingredient, visually observed 17th to 23rd day after application
Summary of the method: as §2

[10] = test system: soybean (Glycine max Merr.); test: Test Example 1: foliar treatment, growth inhibition rate, soybean; format: in vivo; conditions: 31 g/ha active ingredient, visually observed 17th to 23rd day after application
Summary of the method: as §2

[11] = test system: barnyardgrass; test: Test Example 2: soil application on the day after sowing, growth inhibition rate, barnyardgrass; format: in vivo, Echinochloa crus-galli L.; conditions: 250 g/ha active ingredient, observed on 19th to 24th day
Summary of the method: (§3)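 Pre-emergence soil treatment: one day post-sowing in upland soil, compound formulations at set active-ingredient rates were applied in 500 L/ha water. Visual rating of growth inhibition (0% untreated-equivalent to 100% complete kill) followed on days 19–24 after application.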

[12] = test system: crabgrass; test: Test Example 2: soil application on the day after sowing, growth inhibition rate, crabgrass; format: in vivo, Digitaria sanguinalis L.; conditions: 250 g/ha active ingredient, observed on 19th to 24th day
Summary of the method: as §3

[13] = test system: greenfoxtail; test: Test Example 2: soil application on the day after sowing, growth inhibition rate, greenfoxtail; format: in vivo, Setaria viridis L.; conditions: 250 g/ha active ingredient, observed on 19th to 24th day
Summary of the method: as §3

[14] = test system: redroot pigweed; test: Test Example 2: soil application on the day after sowing, growth inhibition rate, redroot pigweed; format: in vivo, Amaranthus retroflexus L.; conditions: 250 g/ha active ingredient, observed on 19th to 24th day
Summary of the method: as §3

[15] = test system: prickly sida; test: Test Example 2: soil application on the day after sowing, growth inhibition rate, prickly sida; format: in vivo, Sida spinosa L.; conditions: 250 g/ha active ingredient, observed on 19th to 24th day
Summary of the method: as §3

[16] = test system: velvetleaf; test: Test Example 2: soil application on the day after sowing, growth inhibition rate, velvetleaf; format: in vivo, Abutilon theophrasti MEDIC.; conditions: 250 g/ha active ingredient, observed on 19th to 24th day
Summary of the method: as §3

[17] = test system: rice; test: Test Example 2: soil application on the day after sowing, growth inhibition rate, rice; format: in vivo, Oryza sativa L.; conditions: 250 g/ha active ingredient, observed on 19th to 24th day
Summary of the method: as §3

[18] = test system: wheat; test: Test Example 2: soil application on the day after sowing, growth inhibition rate, wheat; format: in vivo, Triticum spp.; conditions: 250 g/ha active ingredient, observed on 19th to 24th day
Summary of the method: as §3

[19] = test system: corn; test: Test Example 2: soil application on the day after sowing, growth inhibition rate, corn; format: in vivo, Zea mays L.; conditions: 250 g/ha active ingredient, observed on 19th to 24th day
Summary of the method: as §3

[20] = test system: soybean; test: Test Example 2: soil application on the day after sowing, growth inhibition rate, soybean; format: in vivo, Glycine max Merr.; conditions: 250 g/ha active ingredient, observed on 19th to 24th day
Summary of the method: as §3

| Compound | Growth inhibition rate (%) Barnyardgrass [1] [%] | Growth inhibition rate (%) Crabgrass [2] [%] | Growth inhibition rate (%) Greenfoxtail [3] [%] | Growth inhibition rate (%) redroot pigweed [4] [%] | Growth inhibition rate (%) Prickly sida [5] [%] | Growth inhibition rate (%) Velvetleaf [6] [%] | Growth inhibition rate (%) Rice [7] [%] | Growth inhibition rate (%) Wheat [8] [%] | Growth inhibition rate (%) Corn [9] [%] | Growth inhibition rate (%) Soybean [10] [%] | Growth inhibition rate (%) Barnyardgrass [11] [%] | Growth inhibition rate (%) Crabgrass [12] [%] | Growth inhibition rate (%) Greenfoxtail [13] [%] | Growth inhibition rate (%) redroot pigweed [14] [%] | Growth inhibition rate (%) Prickly sida [15] [%] | Growth inhibition rate (%) Velvetleaf [16] [%] | Growth inhibition rate (%) Rice [17] [%] | Growth inhibition rate (%) Wheat [18] [%] | Growth inhibition rate (%) Corn [19] [%] | Growth inhibition rate (%) Soybean [20] [%] |
| --- | --- | --- | --- | --- | --- | --- | --- | --- | --- | --- | --- | --- | --- | --- | --- | --- | --- | --- | --- | --- |
| CCCOc1c(S(C)(=O)=O)ccc(C(=O)c2cnn(CC)c2OC(=O)SCC)c1C [compound 67] | 95 | 98 | 100 | 95 | 60 | 90 | 60 | 10 | 10 | 90 | 60 | 70 | 40 | 50 | 70 | 60 | 60 | 0 | 0 | 20 |
| CCSC(=O)Oc1c(C(=O)c2ccc(C(F)(F)F)cc2S(C)(=O)=O)cnn1CC [compound 68] | 95 | 40 | 60 | 75 | 70 | 80 | 60 | 0 | 10 | 70 | 100 | 60 | 30 | 98 | 95 | 100 | 100 | 0 | 0 | 40 |
| CCSC(=O)Oc1c(C(=O)c2ccc(S(C)(=O)=O)c(COCC(F)(F)F)c2Cl)cnn1C [compound 70] | 100 | 100 | 100 | 100 | 70 | 80 | 70 | 0 | 30 | 80 | 70 | 80 | 50 | 100 | 65 | 70 | 40 | 0 | 0 | 0 |
| CCSC(=O)Oc1c(C(=O)c2ccc(S(C)(=O)=O)c(OCCSC)c2C)cnn1C [compound 81] | 30 | 0 | 0 | 10 | 0 | 0 | 10 | 0 | 10 | 50 | 0 | 0 | 10 | 0 | 0 | 0 | 0 | 0 | 0 | 0 |
| CCSC(=O)Oc1c(C(=O)c2ccc(S(C)(=O)=O)c(C#N)c2C)cnn1C [compound 82] | 70 | 40 | 60 | 60 | 50 | 70 | 40 | 0 | 0 | 70 | 30 | 70 | 20 | 50 | 80 | 20 | 10 | 0 | 0 | 0 |
| CCSC(=O)Oc1c(C(=O)c2ccc(S(C)(=O)=O)c(CC#N)c2C)cnn1C [compound 83] | 100 | 100 | 100 | 80 | 70 | 95 | 80 | 0 | 0 | 95 | 80 | 95 | 40 | 90 | 70 | 40 | 50 | 0 | 0 | 0 |
| CCCSC(=O)Oc1c(C(=O)c2ccc(S(C)(=O)=O)c(C(=O)OC)c2C)cnn1C [compound 84] | 98 | 98 | 100 | 100 | 100 | 95 | 95 | 50 | 10 | 95 | 98 | 100 | 100 | 100 | 98 | 98 | 98 | 0 | 30 | 50 |
